Earlier results in US9884842B2, “Combretastatin analogs” (The Board of Trustees of the University of Arkansas, priority 2013, dated 2018).

Key:
Conditions in all cases: background; cited from earlier work
tubulin [1] = test system: tubulin
tubulin [2] = test system: tubulin; remark: listed apart in the source
[3] = test system: multidrug resistant (MDR) cancer cell lines

COc1ccc(/C=C\c2cc(OC)c(OC)c(OC)c2)cc1O [combretastatin A-4]
inhibition of tubulin polymerization (tubulin [1]): inhibit tubulin polymerization
inhibition of binding of radiolabeled colchicines to tubulin (tubulin [2]): competitively inhibit the binding of radiolabeled colchicines to tubulin
activity against multidrug resistant (MDR) cancer cell lines [3]: active
